pIC50: −log10 of the molar value. Like-named read-outs stand apart in the source and are kept apart here.
What was measured:
[1] = tested on: A549 (human lung adenocarcinoma); assay: cells; format: cell-based
[2] = in vivo; format: in vivo, mice
Description: Listed in Table 5 are the doses administered to the mice, and how many mice were alive after treatment (“3/3” indicates 3 out of 3 mice were alive). […] MTD for CLR 1865 was between 5 and 10 mg/kg.

[3] = Plasma stability
Description: (§2) A small amount of molecule was exposed to plasma, and the plasma was then analyzed via HPLC or MS to determine if the molecule was degraded.

[4] = tested on: HCT 116 cells (human colon cancer); format: in vivo; settings: three doses of 1 mg/mg each, FIG. 9
[5] = in vitro; settings: mouse, plasma
Description: as §2

[6] = Plasma stability; settings: species not given
[7] = in vitro; settings: human, plasma
Description: as §2

[8] = tested on: Melanoma; assay: Tumor uptake of PLE; format: in vivo; settings: Mouse, Adenocarcinoma
Description: (§1) Tumor cell uptake was measured continuously for 24 hours.

[9] = tested on: Colon DLDI; assay: Tumor uptake of PLE; format: in vivo; settings: SCID Mouse, Colorectal adenocarcinoma
Description: as §1

[10] = tested on: Mammary SCC; assay: Tumor uptake of PLE; format: in vivo; settings: Apc^Min/+ mouse, Squamous cell carcinoma
Description: as §1

[11] = tested on: Colon CT-26; assay: Tumor uptake of PLE; format: in vivo; settings: SCID Mouse, Adenocarcinoma
Description: as §1

[12] = tested on: Pancreatic Capan-1; assay: Tumor uptake of PLE; format: in vivo; settings: Nude Mouse, Adenocarcinoma
Description: as §1

[13] = tested on: Glioma L9; assay: Tumor uptake of PLE; format: in vivo; settings: Rat xenograft
Description: as §1

[14] = tested on: Lung NCI H-69 (Oat Cell); assay: Tumor uptake of PLE; format: in vivo; settings: SCID Mouse, Adenocarcinoma
Description: as §1

[15] = tested on: Ovarian HTB-77; assay: Tumor uptake of PLE; format: in vivo; settings: Nude Mouse, Adenocarcinoma
Description: as §1

[16] = tested on: Renal Cell Caki-2; assay: Tumor uptake of PLE; format: in vivo; settings: Nude Mouse (orthotopic), Adenocarcinoma
Description: as §1

[17] = tested on: Cervical; assay: Tumor uptake of PLE; format: in vivo; settings: Endogenous Mouse, Adenocarcinoma
Description: as §1

[18] = tested on: Melanoma A-375; assay: Tumor uptake of PLE; format: in vivo; settings: Nude Mouse, Adenocarcinoma
Description: as §1

[19] = tested on: Glioma RG2; assay: Tumor uptake of PLE; format: in vivo; settings: Rat xenograft
Description: as §1

[20] = tested on: Min Mouse Intestinal; assay: Tumor uptake of PLE; format: in vivo; settings: Endogenous Mouse, Adenocarcinoma
Description: as §1

[21] = tested on: Renal Cell ACHN; assay: Tumor uptake of PLE; format: in vivo; settings: Nude Mouse (orthotopic), Adenocarcinoma
Description: as §1

[22] = tested on: Colon HT-29; assay: Tumor uptake of PLE; format: in vivo; settings: SCID Mouse, Colorectal adenocarcinoma
Description: as §1

[23] = tested on: Colon-51; assay: Tumor uptake of PLE; format: in vivo; settings: SCID Mouse, Colorectal adenocarcinoma
Description: as §1

[24] = tested on: Retinoblastoma; assay: Tumor uptake of PLE; format: in vivo; settings: Endogenous Mouse, Blastoma
Description: as §1

[25] = tested on: Pancreatic BXPC3; assay: Tumor uptake of PLE; format: in vivo; settings: Nude Mouse, Adenocarcinoma
Description: as §1

[26] = tested on: Pancreatic c-myc; assay: Tumor uptake of PLE; format: in vivo; settings: Endogenous Mouse, Adenocarcinoma
Description: as §1

[27] = tested on: Esophageal; assay: Tumor uptake of PLE; format: in vivo; settings: Endogenous Mouse, Adenocarcinoma
Description: as §1

[28] = tested on: SCC6; assay: Tumor uptake of PLE; format: in vivo; settings: Nude Mouse, Adenocarcinoma
Description: as §1

[29] = tested on: Breast MCF-7; assay: Tumor uptake of PLE; format: in vivo; settings: Rat, Adenocarcinoma
Description: as §1

[30] = tested on: SCC1; assay: Tumor uptake of PLE; format: in vivo; settings: Nude Mouse, Squamous cell carcinoma
Description: as §1

[31] = tested on: Adrenal H-295; assay: Tumor uptake of PLE; format: in vivo; settings: SCID Mouse, Adenocarcinoma
Description: as §1

[32] = tested on: Glioma CNS1; assay: Tumor uptake of PLE; format: in vivo; settings: Rat xenograft
Description: as §1

[33] = tested on: Prostate LnCap; assay: Tumor uptake of PLE; format: in vivo; settings: Mouse, Adenocarcinoma
Description: as §1

[34] = tested on: Colon LS-180; assay: Tumor uptake of PLE; format: in vivo; settings: Nude Mouse, Adenocarcinoma
Description: as §1

[35] = tested on: Pancreatic Kras; assay: Tumor uptake of PLE; format: in vivo; settings: Endogenous Mouse, Adenocarcinoma
Description: as §1

[36] = tested on: TRAMP prostate; assay: Tumor uptake of PLE; format: in vivo; settings: Endogenous Mouse, Adenocarcinoma
Description: as §1

[37] = tested on: Glioma C6; assay: Tumor uptake of PLE; format: in vivo; settings: Rat xenograft
Description: as §1

[38] = tested on: Breast 4T1; assay: Tumor uptake of PLE; format: in vivo; settings: Endogenous Mouse (orthotopic), Adenocarcinoma
Description: as §1

[39] = tested on: Sarcoma (Meth-A); assay: Tumor uptake of PLE; format: in vivo; settings: Nude Mouse, Fibrosarcoma
Description: as §1

[40] = tested on: ColonLS180; assay: Tumor uptake of PLE; format: in vivo; settings: SCID Mouse, Colorectal adenocarcinoma
Description: as §1

[41] = tested on: Lung A-549 (NSCLC); assay: Tumor uptake of PLE; format: in vivo; settings: SCID Mouse, Adenocarcinoma
Description: as §1

[42] = tested on: Adrenal RL-251; assay: Tumor uptake of PLE; format: in vivo; settings: SCID Mouse, Adenocarcinoma
Description: as §1

[43] = tested on: Walker-256; assay: Tumor uptake of PLE; format: in vivo; settings: Rat, Carcinosarcoma
Description: as §1

[44] = tested on: Prostate PC-3; assay: Tumor uptake of PLE; format: in vivo; settings: SCID Mouse, Adenocarcinoma
Description: as §1

[45] = tested on: Hepatocellular Carcinoma; assay: Tumor uptake of PLE; format: in vivo; settings: Endogenous Mouse, Adenocarcinoma
Description: as §1

[46] = tested on: Mammary AC; assay: Tumor uptake of PLE; format: in vivo; settings: Apc^Min/+ mouse, Adenocarcinoma
Description: as §1

[47] = tested on: Prostate LuCap; assay: Tumor uptake of PLE; format: in vivo; settings: Mouse, Adenocarcinoma
Description: as §1

[48] = tested on: Prostate MatLyLu; assay: Tumor uptake of PLE; format: in vivo; settings: Rat, Adenocarcinoma
Description: as §1

[49] = tested on: Normal fibroblast; assay: Selective uptake of PDC in co-culture; format: cell-based; settings: 5 μM, 24 hours, co-culture with Caki-2
Description: (§3) Normal fibroblast and Caki-2 tumor cells (human clear cell renal cell carcinoma) were plated and co-cultured overnight (FIG. 1F). […] The next day cells were washed and co-stained with nucleus stain (Hoescht 33342). CLR 1501 was excited and then detected with an Alexa-Fluor 488 filter.

[50] = tested on: Caki-2 tumor cells (human clear cell renal cell carcinoma); assay: Selective uptake of PDC in co-culture; format: cell-based; settings: 5 μM, 24 hours, co-culture with normal fibroblast
Description: as §3

[51] = tested on: A549 cells; assay: Uptake of PDC after disruption of lipid rafts; format: cell-based, human; settings: lipid rafts disrupted with methyl b-cyclodextrin vs untreated cells; 5 μM, 24 hours
Description: A549 cells were plated overnight into separate wells.

[52] = tested on: Human prostate adenocarcinoma cells (PC3); assay: Co-localization with endoplasmic reticulum; format: cell-based; settings: 5 μM, 24 hours, ER-tracker
Excerpt: After washing, the cells were co-stained with ER-tracker® per protocol and imaged using Nikon A1R confocal light microscope. CLR 1501 and ER were excited and detected using Alexa-Fluor 488 using standard fluorescein filters.

[53] = tested on: PC3 (grade IV, human prostate adenocarcinoma) cell lines; assay: Co-localization with mitochondria; format: cell-based; settings: 5 μM, 24 hours, Mitotracker
Excerpt: The cells were observed using Nikon A1R confocal microscope.

[54] = tested on: A375 (human malignant melanoma); assay: IC50 of PLE-flavagline conjugates in cell lines; format: cell-based; settings: A-375, read-out: IC50 A375
[55] = tested on: NHDF (normal human dermal fibroblasts); assay: IC50 of PLE-flavagline conjugates in cell lines; format: cell-based; settings: read-out: IC50 NHDF
[56] = tested on: HCT 116 (human colon cancer); assay: IC50 of PLE-flavagline conjugates in cell lines; format: cell-based; settings: HCT-116, read-out: IC50 HCT 116
[57] = tested on: A375 and A549 cells; assay: FLV3 levels in cell lysate and growth media by LC/MS; format: cell-based, human; settings: after 24 hours, CLR 1852 and FLV3 alone administered
Description: The levels of FLV3 in cell lysate and growth media were measured using LC/MS. […] Levels of intracellular FLV3 appeared to plateau at 24 hours, while extracellular levels of FLV3 continued to increase.

COC(=O)[C@H]1[C@@H](O)[C@@]2(O)c3c(OC)cc(OCCCCNC(=O)OCC(C)(C)SSCCCCCCCCCCCCCCCCCCOP(=O)([O-])OCC[N+](C)(C)C)cc3O[C@@]2(c2ccc(OC)cc2)[C@@H]1c1ccccc1 [CLR 1852]
Therapeutic Index (TI) [1]: 360
Therapeutic Index (TI), second value in parentheses ([1]; in vitro, from the NHDF value in parentheses): (915)
cytotoxic potency compared to FLV3 alone ([1]; various concentrations, FIG. 8 (A549 and NHDF)): modest loss in potency
mice alive after treatment ([2]; Dose 0.1 mg/kg): 3/3
mice alive after treatment ([2]; Dose 0.25 mg/kg): 3/3
mice alive after treatment ([2]; Dose 0.5 mg/kg): 3/3
mice alive after treatment ([2]; Dose 1.0 mg/kg): 3/3
mice alive after treatment ([2]; Dose 5.0 mg/kg): 3/3
mice alive after treatment ([2]; Dose 10.0 mg/kg): 3/3
maximum tolerated dose (MTD) ([2]; mice): did not achieve a maximum tolerated dose
tolerability compared to FLV3 alone ([2]; mice): excellent improvement in tolerability
in vivo therapeutic index ([2]; mouse, in vivo): at least 25
human plasma stability [3]: excellent human plasma stability
tumor volume compared to vehicle [4]: reduced the tumor volume beginning at around 27 days
half-life [5]: > 6.67 h
time stable in plasma [6]: at least 7 hours
half-life [7]: > 6.67 h

C[N+](C)(C)CCOP(=O)([O-])OCCCCCCCCCCCCCCCCCCc1ccc(C2=C3C=CC=[N+]3[B-](F)(F)n3cccc32)cc1 [CLR 1501]
Tumor Uptake [8]: Yes
Tumor Uptake [9]: Yes
Tumor Uptake [10]: Yes
Tumor Uptake [11]: Yes
Tumor Uptake [12]: Yes
Tumor Uptake [13]: Yes
Tumor Uptake [14]: Yes
Tumor Uptake [15]: Yes
Tumor Uptake [16]: Yes
Tumor Uptake [17]: Yes
Tumor Uptake [18]: Yes
Tumor Uptake [19]: Yes
Tumor Uptake [20]: Yes
Tumor Uptake [21]: Yes
Tumor Uptake [22]: Yes
Tumor Uptake [23]: Yes
Tumor Uptake [24]: Yes
Tumor Uptake [25]: Yes
Tumor Uptake [26]: Yes
Tumor Uptake [27]: Yes
Tumor Uptake [28]: Yes
Tumor Uptake [29]: Yes
Tumor Uptake [30]: Yes
Tumor Uptake [31]: Yes
Tumor Uptake [32]: Yes
Tumor Uptake [33]: Yes
Tumor Uptake [34]: Yes
Tumor Uptake [35]: Yes
Tumor Uptake [36]: Yes
Tumor Uptake [37]: Yes
Tumor Uptake [38]: Yes
Tumor Uptake [39]: Yes
Tumor Uptake [40]: Yes
Tumor Uptake [41]: Yes
Tumor Uptake [42]: Yes
Tumor Uptake [43]: Yes
Tumor Uptake [44]: Yes
Tumor Uptake [45]: Yes
Tumor Uptake [46]: Yes
Tumor Uptake [47]: Yes
Tumor Uptake [48]: Yes
localization in normal fibroblast cells [49]: minimally
localization in Caki-2 cells [50]: highly localized
reduction in uptake [51]: 60%
co-localization with ER [52]: co-localized with ER in malignant
co-localization with mitochondria [53]: co-localized with mitochondria

COC(=O)[C@@H]1[C@H](O)[C@]2(O)c3c(OC)cc(OCCCCN)cc3O[C@]2(c2ccc(OC)cc2)[C@H]1c1ccccc1 [FLV3]
pIC50 ([1]; Homo sapiens, A549, read-out: IC50 A549): 7.05
Therapeutic Index (TI) ([1]; in vitro, NHDF IC50 relative to cancer cell IC50): 0.89
pIC50 [54]: 7.82
pIC50 [55]: 8.10
mice alive after treatment ([2]; Dose 0.1 mg/kg): 3/3
mice alive after treatment ([2]; Dose 0.25 mg/kg): 3/3
pIC50 [56]: 8.05
levels of FLV3 in the cell lysate [57]: high levels
levels of FLV3 in the growth media [57]: Moderate levels

Reference: patent US12496346B2, “Phospholipid-flavagline conjugates and methods of using the same for targeted cancer therapy” (Cellectar Biosciences, Inc., priority 2019, dated 2025)
